From PubChem BioAssay AID248 (DTP/NCI, 2004)
Inconclusive results and toxic doses are left out. Rule as the data show it: active = T/C of 150% or more; inactive = T/C below 125%.

System: L1210 leukemia ip in BDF1 mice, survival T/C
Test: NCI In Vivo Anticancer Drug Screen. Data for tumor model L1210 Leukemia (intraperitoneal) in B6D2F1 (BDF1) mice
Details: endpoint: mean survival time, higher = longer survival
Outline: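 Transplanted-tumor mice were given test agent; controls received vehicle only. Survival readings from the two groups were divided (treated over control).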

[1] = dose: 100.0 mg/kg/injection, schedule: Q04DX003 (ip), vehicle: saline with Tween-80
[2] = dose: 200.0 mg/kg/injection, schedule: Q04DX003 (ip), vehicle: saline with Tween-80
[3] = dose: 75.0 mg/kg/injection, schedule: Q01DX001 (ip), vehicle: saline
[4] = dose: 150.0 mg/kg/injection, schedule: Q01DX001 (ip), vehicle: saline
[5] = dose: 300.0 mg/kg/injection, schedule: Q01DX001 (ip), vehicle: saline
[6] = dose: 100.0 mg/kg/injection, schedule: Q01DX001 (ip), vehicle: saline
[7] = dose: 200.0 mg/kg/injection, schedule: Q01DX001 (ip), vehicle: saline
[8] = dose: 400.0 mg/kg/injection, schedule: Q04DX003 (ip), vehicle: saline with Tween-80
[9] = dose: 100.0 mg/kg/injection, schedule: Q04DX003 (ip), vehicle: Klucel (hydroxypropylcellulose) (HPC)
[10] = dose: 200.0 mg/kg/injection, schedule: Q04DX003 (ip), vehicle: Klucel (hydroxypropylcellulose) (HPC)
[11] = dose: 400.0 mg/kg/injection, schedule: Q04DX003 (ip), vehicle: Klucel (hydroxypropylcellulose) (HPC)
[12] = dose: 100.0 mg/kg/injection, schedule: Q01DX001 (ip), vehicle: saline with Tween-80
[13] = dose: 200.0 mg/kg/injection, schedule: Q01DX001 (ip), vehicle: saline with Tween-80
[14] = dose: 400.0 mg/kg/injection, schedule: Q01DX001 (ip), vehicle: saline with Tween-80
[15] = dose: 100.0 mg/kg/injection, schedule: Q04DX002 (ip), vehicle: Klucel (hydroxypropylcellulose) (HPC)
[16] = dose: 200.0 mg/kg/injection, schedule: Q04DX002 (ip), vehicle: Klucel (hydroxypropylcellulose) (HPC)
[17] = dose: 400.0 mg/kg/injection, schedule: Q04DX002 (ip), vehicle: Klucel (hydroxypropylcellulose) (HPC)
[18] = dose: 100.0 mg/kg/injection, schedule: Q01DX001 (ip), vehicle: Klucel (hydroxypropylcellulose) (HPC)
[19] = dose: 200.0 mg/kg/injection, schedule: Q01DX001 (ip), vehicle: Klucel (hydroxypropylcellulose) (HPC)
[20] = dose: 400.0 mg/kg/injection, schedule: Q01DX001 (ip), vehicle: Klucel (hydroxypropylcellulose) (HPC)

Measured: T/C

O=[N+]([O-])c1ccc(/C=N\Nc2ccccn2)s1
inactive: [1] 93 % of control | [2] 93 % of control

O=[As](O)(O)c1ccccc1Br
inactive: [3] 111 % of control | [4] 105 % of control | [5] 102 % of control

Cc1ccc(Cl)nn1
inactive: [6] 108 % of control | [7] 109 % of control

O=[N+]([O-])c1cccc(C(O)C=C(C(F)(F)F)C(F)(F)F)c1 (centres undefined)
inactive: dose: 25.0 mg/kg/injection, schedule: Q01DX009 (ip), vehicle: saline with Tween-80 100 % of control | dose: 50.0 mg/kg/injection, schedule: Q01DX009 (ip), vehicle: saline with Tween-80 98 % of control | dose: 100.0 mg/kg/injection, schedule: Q01DX009 (ip), vehicle: saline with Tween-80 98 % of control | [1] 103 % of control

CCOC(=O)Nc1cc(Cl)c([N+](=O)[O-])c(N)n1
inactive: dose: 50.0 mg/kg/injection, schedule: Q01DX001 (ip), vehicle: other 106 % of control | dose: 100.0 mg/kg/injection, schedule: Q01DX001 (ip), vehicle: other 101 % of control | [1] 92 % of control | dose: 200.0 mg/kg/injection, schedule: Q01DX001 (ip), vehicle: other 109 % of control | [2] 116 % of control | dose: 400.0 mg/kg/injection, schedule: Q01DX001 (ip), vehicle: other 104 % of control | [8] 104 % of control

CC(C)(O)C(=O)NCNC(=O)C(C)(C)O
inactive: dose: 100.0 mg/kg/injection, schedule: Q01DX009 (ip), vehicle: Klucel (hydroxypropylcellulose) (HPC) 102 % of control | [9] 103 % of control | dose: 200.0 mg/kg/injection, schedule: Q01DX009 (ip), vehicle: Klucel (hydroxypropylcellulose) (HPC) 97 % of control | [10] 103 % of control | dose: 400.0 mg/kg/injection, schedule: Q01DX009 (ip), vehicle: Klucel (hydroxypropylcellulose) (HPC) 97 % of control | [11] 106 % of control

COc1cc2c(cc1OC)-c1cc3cc(OC)c(OC)cc3c(C)[n+]1CC2
inactive: dose: 12.5 mg/kg/injection, schedule: Q04DX002 (ip), vehicle: Klucel (hydroxypropylcellulose) (HPC) 102 % of control | dose: 25.0 mg/kg/injection, schedule: Q04DX002 (ip), vehicle: Klucel (hydroxypropylcellulose) (HPC) 105 % of control | dose: 50.0 mg/kg/injection, schedule: Q04DX002 (ip), vehicle: Klucel (hydroxypropylcellulose) (HPC) 105 % of control

CCC1=C/C(=C/c2cc(Cl)ccc2O)C(=O)S1
inactive: [12] 91 % of control | [13] 87 % of control | [14] 94 % of control

CC(=O)c1ccccc1[N+](=O)[O-]
inactive: [1] 107 % of control | [2] 96 % of control | [8] 94 % of control

O=C1CC2C(=O)C1C(C(=O)O)C2C(=O)O (centres undefined)
inactive: [3] 112 % of control | [4] 102 % of control | [5] 95 % of control

CCn1c(C)nc2cc(N=Cc3ccc(N(CCCl)CCCl)cc3C)ccc21
inactive: dose: 87.5 mg/kg/injection, schedule: Q04DX002 (ip), vehicle: Klucel (hydroxypropylcellulose) (HPC) 102 % of control | [15] 95 % of control | dose: 175.0 mg/kg/injection, schedule: Q04DX002 (ip), vehicle: Klucel (hydroxypropylcellulose) (HPC) 102 % of control | [16] 102 % of control | dose: 350.0 mg/kg/injection, schedule: Q04DX002 (ip), vehicle: Klucel (hydroxypropylcellulose) (HPC) 98 % of control | [17] 102 % of control

CCCCCCCCCCCCCCCCCC(=O)OC(C(O)C=O)C(O)C(O)CO (centres undefined)
inactive: [15] 95 % of control | [16] 109 % of control | [17] 95 % of control

Brc1cc(Br)c(N=Nc2c(Br)cc(Br)cc2Br)c(Br)c1
inactive: dose: 50.0 mg/kg/injection, schedule: Q01DX001 (ip), vehicle: saline 95 % of control | [6] 95 % of control | [7] 95 % of control | dose: 400.0 mg/kg/injection, schedule: Q01DX001 (ip), vehicle: saline 101 % of control

COc1cc2c(cc1OC)-c1ncnc(-c3ccccc3)c1C2
inactive: [9] 95 % of control | [10] 94 % of control | [11] 101 % of control

O=C1C=CC(=O)c2cc(Cl)c(Cl)cc21
inactive: dose: 3.12 mg/kg/injection, schedule: Q01DX009 (ip), vehicle: saline 89 % of control | dose: 6.25 mg/kg/injection, schedule: Q01DX009 (ip), vehicle: saline 90 % of control | dose: 6.25 mg/kg/injection, schedule: Q04DX003 (ip), vehicle: saline 96 % of control | dose: 12.5 mg/kg/injection, schedule: Q01DX001 (ip), vehicle: saline 98 % of control | dose: 12.5 mg/kg/injection, schedule: Q04DX003 (ip), vehicle: saline 98 % of control | dose: 25.0 mg/kg/injection, schedule: Q01DX001 (ip), vehicle: saline 90 % of control

CCOC1(OCC)CC2(Cl)C(Cl)=C(Cl)C(Cl)(C3C1CC3(OCC)OCC)C2(OC)OC (centres undefined)
inactive: dose: 75.0 mg/kg/injection, schedule: Q01DX009 (ip), vehicle: Klucel (hydroxypropylcellulose) (HPC) 103 % of control | [18] 95 % of control | dose: 150.0 mg/kg/injection, schedule: Q01DX009 (ip), vehicle: Klucel (hydroxypropylcellulose) (HPC) 107 % of control | [19] 103 % of control | dose: 300.0 mg/kg/injection, schedule: Q01DX009 (ip), vehicle: Klucel (hydroxypropylcellulose) (HPC) 100 % of control | [20] 97 % of control

CN(C)CCOc1ccccc1Cc1ccccc1
inactive: dose: 12.5 mg/kg/injection, schedule: Q01DX009 (ip), vehicle: saline 96 % of control | dose: 25.0 mg/kg/injection, schedule: Q01DX009 (ip), vehicle: saline 97 % of control | dose: 25.0 mg/kg/injection, schedule: Q04DX003 (ip), vehicle: saline 107 % of control | dose: 50.0 mg/kg/injection, schedule: Q01DX009 (ip), vehicle: saline 90 % of control | dose: 50.0 mg/kg/injection, schedule: Q04DX003 (ip), vehicle: saline 98 % of control | dose: 100.0 mg/kg/injection, schedule: Q01DX009 (ip), vehicle: saline 103 % of control | dose: 100.0 mg/kg/injection, schedule: Q04DX003 (ip), vehicle: saline 107 % of control | dose: 200.0 mg/kg/injection, schedule: Q01DX009 (ip), vehicle: saline 110 % of control | dose: 200.0 mg/kg/injection, schedule: Q04DX003 (ip), vehicle: saline 107 % of control

CN(C)C(=O)Nc1cccc(OC(=O)NC2CCCCC2)c1
inactive: [12] 97 % of control | [13] 92 % of control | [14] 87 % of control

COc1ccc2c(n1)Sc1c(Cl)nc(Cl)nc1N2
inactive: [18] 95 % of control | [19] 93 % of control | [20] 98 % of control

Cc1ccccc1N=Nc1c(O)[nH]c2ccccc12
inactive: dose: 100.0 mg/kg/injection, schedule: Q01DX001 (ip), vehicle: acetone 93 % of control | dose: 200.0 mg/kg/injection, schedule: Q01DX001 (ip), vehicle: acetone 95 % of control | dose: 400.0 mg/kg/injection, schedule: Q01DX001 (ip), vehicle: acetone 96 % of control

Cc1ccc(S(=O)(=O)N(C)c2ccc(N)cc2)cc1
inactive: dose: 100.0 mg/kg/injection, schedule: Q01DX001 (ip), vehicle: carboxymethylcellulose (CMC) 102 % of control | dose: 200.0 mg/kg/injection, schedule: Q01DX001 (ip), vehicle: carboxymethylcellulose (CMC) 96 % of control | dose: 400.0 mg/kg/injection, schedule: Q01DX001 (ip), vehicle: carboxymethylcellulose (CMC) 91 % of control

COc1ccc(C(OCC2OC(n3nnc4c(=O)[nH]c(N)nc43)CC2OC(C)=O)(c2ccccc2)c2ccc(OC)cc2)cc1 (centres undefined)
inactive: dose: 12.5 mg/kg/injection, schedule: Q01DX001 (ip), vehicle: Klucel (hydroxypropylcellulose) (HPC) 103 % of control | dose: 25.0 mg/kg/injection, schedule: Q01DX001 (ip), vehicle: Klucel (hydroxypropylcellulose) (HPC) 93 % of control | dose: 50.0 mg/kg/injection, schedule: Q01DX001 (ip), vehicle: Klucel (hydroxypropylcellulose) (HPC) 97 % of control | [20] 100 % of control
